For this assay, the system named is M1 seed of maize inbred line UE95 (sensitive plants). As to the kind of experiment: Pre-emergence screening of M1 seed. Format: in vivo, Zea mays. Here is the method: M1 seed was sown, 100 seeds per tray, in WCB growing medium (low organic matter, 45% loam, 55% grit) and sprayed to 'run-off' using a track sprayer, with a solution of imazethapyr (PURSUIT) at a concentration calculated to be the equivalent of 250 g/ha of active ingredient . The seeds were covered with 0.5 inch of WCB and grown in the glasshouse at 25°C.
The chosen application rate was such that germination was close to 100%, but subsequently all susceptible plants were severely affected. However, after about two weeks, the initial effect of the herbicide became apparent: thin striped leaves and reduced height of only about 20% of the height of the control plants. […] Unsprayed UE95 plants were always grown in parallel with each screen as a control as it was already known that normal and M1 seedlings of UE95 are almost indistinguishable when germinated and grown to maturity without spraying.

`CCc1cnc(C2=NC(=O)C(C)(C(C)C)N2)c(C(=O)O)c1` (stereo not drawn) [Imazethapyr, 5-ethyl-2-(5-iso-propyl-5-methyl-4-oxo-2-imidazolin-2-yl) nicotinic acid]: the germination (250 g/ha of active ingredient, pre-emergence, glasshouse at 25°C) was roughly 100%. The “effect on sensitive plants” value (250 g/ha, after three to four weeks) was “almost all the sensitive plants were completely dead”. For the setting “250 g/ha, susceptible plants, after about two weeks”, the reduced height result is on record as “about 20 % of the height of the control plants”.

For the origin of these results see patent EP0472573B1, “HERBICIDE RESISTANT MAIZE” (ZENECA LIMITED, priority 1989, dated 1990).
